Source: article PMC12566046, “Arylpiperazinyl-Benzocycloheptapyrrole-Carboxamides Endowed with Dual Anticancer and Antiviral Activities” (Molecules, 2025)
Read-outs that look alike come from different tables or passages of the source.

Tests used:
[1] = system: SF-295 (CNS cancer cell line); test: NCI-60 single-dose assay; assay type: cell-based, human
Method in brief: (§1)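 NCI-60 one-dose format: each compound is tested at a single dose against human tumour lines for cytotoxic effect.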

[2] = system: HL-60(TB) (leukemia cell line); test: NCI-60 five-dose assay; assay type: cell-based, human; details: Homo sapiens, five doses (10^−4–10^−8 M), read-out: Growth inhibition 50 (GI50)
[3] = system: COLO 205 (colon cancer cell line); test: NCI-60 five-dose assay; assay type: cell-based, human; details: Homo sapiens, five doses (10^−4–10^−8 M), read-out: Growth inhibition 50 (GI50)
[4] = system: HCC-2998 (colon cancer cell line); test: NCI-60 five-dose assay; assay type: cell-based, human; details: Homo sapiens, five doses (10^−4–10^−8 M), read-out: Growth inhibition 50 (GI50)
[5] = system: HCT-116 (colon cancer cell line); test: NCI-60 five-dose assay; assay type: cell-based, human; details: Homo sapiens, five doses (10^−4–10^−8 M), read-out: Growth inhibition 50 (GI50)
[6] = system: HT29 (colon cancer cell line); test: NCI-60 five-dose assay; assay type: cell-based, human; details: Homo sapiens, HT-29, five doses (10^−4–10^−8 M), read-out: Growth inhibition 50 (GI50)
SF-295 (CNS cancer) = test: NCI-60 five-dose assay; assay type: cell-based; details: Homo sapiens, five-dose screen
Colon Cancer panel = test: NCI-60 five-dose assay, panel-level GI50 (mean graph midpoint, range); assay type: cell-based, human; details: Homo sapiens
Protocol: (§2) Due to these preliminary results, six compounds, 1, 5, 10, 11, 17, and 20, were selected for the five-dose screen NCI-programme against the same panel of tumour cell lines.
(§3) Next, a mean graph midpoint (MG_MD) was calculated for compounds 1, 5, 10, 11, 17, and 20 and reported as waterfall graphs GI50, TGI, and LC50 in the Supplementary Materials (Figures S69–S86). In Table 9, we reported the average GI50 for the nine-cancer panels, underlining both the activity and selectivity for compounds 1, 10, 11, and 20.

Leukemia panel = test: as above; assay type: cell-based, human; details: Homo sapiens
Protocol: as §2, §3

Melanoma panel = test: as above; assay type: cell-based, human; details: Homo sapiens
Protocol: as §2, §3

Breast Cancer panel = test: NCI-60 five-dose assay, panel-level GI50 (mean graph midpoint); assay type: cell-based, human; details: Homo sapiens; Breast Cancer panel average; read-out: GI50 mean graph midpoint (MG_MID)
Protocol: as §2, §3

CNS Cancer panel = test: as above; assay type: cell-based, human; details: Homo sapiens; CNS Cancer panel average; read-out: GI50 mean graph midpoint (MG_MID)
Protocol: as §2, §3

[7] = system: Non-Small Cell Lung Cancer panel; test: as above; assay type: cell-based, human; details: Homo sapiens; Non-Small Cell Lung Cancer panel average; read-out: GI50 mean graph midpoint (MG_MID)
Protocol: as §2, §3

Ovarian Cancer panel = test: as above; assay type: cell-based, human; details: Homo sapiens; Ovarian Cancer panel average; read-out: GI50 mean graph midpoint (MG_MID)
Protocol: as §2, §3

Prostate Cancer panel = test: as above; assay type: cell-based, human; details: Homo sapiens; Prostate Cancer panel average; read-out: GI50 mean graph midpoint (MG_MID)
Protocol: as §2, §3

Renal Cancer panel = test: as above; assay type: cell-based, human; details: Homo sapiens; Renal Cancer panel average; read-out: GI50 mean graph midpoint (MG_MID)
Protocol: as §2, §3

[8] = system: NCI cancer panel (all cell lines); test: NCI-60 five-dose assay, overall mean graph midpoint (MG_MID); assay type: cell-based, human; details: Homo sapiens
Protocol: as §2, §3

[9] = system: LOX IMVI (melanoma cell line); test: NCI-60 five-dose assay; details: for GI50 / CC50: Homo sapiens; for GI50: read-out: Growth inhibition 50 (GI50); for CC50: read-out: LC50 (molar concentration leading to 50% net cell death)
[10] = system: MDA-MB-435 (melanoma cell line); test: NCI-60 five-dose assay; details: for GI50 / CC50: Homo sapiens; for GI50: MDA-MB-435, read-out: Growth inhibition 50 (GI50); for CC50: MDA-MB-435, read-out: LC50 (molar concentration leading to 50% net cell death); for TGI (molar concentration giving total growth inhibition): MDA-MB-435
[11] = system: SK-MEL-2 (melanoma cell line); test: NCI-60 five-dose assay; details: for GI50 / CC50: Homo sapiens; for GI50: SK-MEL-2, read-out: Growth inhibition 50 (GI50); for CC50: SK-MEL-2, read-out: LC50 (molar concentration leading to 50% net cell death); for TGI (molar concentration giving total growth inhibition): SK-MEL-2
[12] = system: SK-MEL-28 (melanoma cell line); test: NCI-60 five-dose assay; details: for GI50 / CC50: Homo sapiens; for GI50: SK-MEL-28, read-out: Growth inhibition 50 (GI50); for CC50: SK-MEL-28, read-out: LC50 (molar concentration leading to 50% net cell death); for TGI (molar concentration giving total growth inhibition): SK-MEL-28
[13] = system: UACC-62 (melanoma cell line); test: NCI-60 five-dose assay; details: for GI50 / CC50: Homo sapiens; for GI50: UACC-62, read-out: Growth inhibition 50 (GI50); for CC50: UACC-62, read-out: LC50 (molar concentration leading to 50% net cell death); for TGI (molar concentration giving total growth inhibition): UACC-62
MDCK cells = details: dog
[14] = system: OVCAR-4 (ovarian cancer cell line); test: NCI-60 single-dose assay; assay type: cell-based, human
Method in brief: as §1

[15] = system: PC-3 (prostate cancer cell line); test: NCI-60 single-dose assay; assay type: cell-based, human
Method in brief: as §1

[16] = Colon Cancer panel average, read-out: GI50 mean graph midpoint (MG_MID)
[17] = Leukemia panel average, read-out: GI50 mean graph midpoint (MG_MID)
[18] = Melanoma panel average, read-out: GI50 mean graph midpoint (MG_MID)
[19] = five-dose screen, number of cell lines as named in the sentence, read-out: GI50, range over melanoma cell lines
[20] = MG_MID over all panels, read-out: GI50 mean graph midpoint (MG_MID)

| Structure (SMILES) | GI50 [2] [µM] | GI50 [3] [µM] | GI50 [4] [µM] | GI50 [5] [µM] | GI50 [6] [µM] | GI50 (Colon Cancer panel; [16]) [µM] | GI50 (Leukemia panel; [17]) [µM] | GI50 (Melanoma panel; [18]) [µM] | GI50 (Breast Cancer panel) [µM] | GI50 (CNS Cancer panel) [µM] | GI50 [7] [µM] | GI50 (Ovarian Cancer panel) [µM] | GI50 (Prostate Cancer panel) [µM] | GI50 (Renal Cancer panel) [µM] | GI50 [8, 20] [µM] | TGI (molar concentration giving total growth inhibition) [9] [µM] | GI50 [9] [µM] | GI50 [10] [µM] | CC50 [10] [µM] | TGI (molar concentration giving total growth inhibition) [10] [µM] | further results |
| --- | --- | --- | --- | --- | --- | --- | --- | --- | --- | --- | --- | --- | --- | --- | --- | --- | --- | --- | --- | --- | --- |
| CCN1CCC[C@H]1CNC(=O)c1[nH]c2c(c1Cl)CCCc1ccccc1-2 [Compound 1, (S)-3-Chloro-N-(1-ethyl-2-pyrrolidinylmethyl)-5,6-dihydro-4H-benzo[6,7]cyclohepta[1,2-b]pyrrol-2-carboxamide] | 2.6 | 1.8 | 2.98 | 3.12 | 1.86 | 2.34 | 2.81 | 2.14 | 4.47 | 4.79 | 7.24 | 2.29 | 8.13 | 5.25 | 4.26 | 3.39 | 1.76 | 1.76 | 5.62 | 3.55 | growth inhibition (GI%) and cytotoxicity (negative values) ([1]; human): −24.35%; GI50 (SF-295 (CNS cancer)): 1.89 µM; GI50 (Colon Cancer panel; five-dose screen, read-out: GI50, range over colon cancer cell lines): 1.8 to 3.12 µM; GI50 (Leukemia panel; Leukemia panel, read-out: average GI50 (mean graph midpoint)): 2.82 µM; GI50 (Leukemia panel; five-dose screen, cell lines as named in the sentence, read-out: GI50, range over leukemia cell lines): 1.76 to 5.96 µM; GI50 (Melanoma panel; [19]): 1.54 to 2.03 µM; GI50 ([8]; all cell lines, read-out: MG_MID Log10 GI50 (converted)): 4.79 µM; CC50 [9]: 6.31 µM; GI50 [11]: 9.38 µM; CC50 [11]: 46.8 µM; TGI (molar concentration giving total growth inhibition) [11]: 21.34 µM; GI50 [12]: 1.87 µM; CC50 [12]: 7.24 µM; GI50 [13]: 1.87 µM; CC50 [13]: 8.32 µM; TGI (molar concentration giving total growth inhibition) [13]: 3.98 µM |
| O=C(NCCCN1CCN(c2ccccc2)CC1)c1cc2c([nH]1)-c1ccccc1CCC2 [Compound 10, N-(3-(4-Phenylpiperazin-1-yl)propyl)-1,4,5,6-tetrahydrobenzo[6,7]cyclohepta[1,2-b]pyrrole-2-carboxamide] | 5.58 | 1.92 | 2.51 | 4.83 | 3.14 | 3.98 | 2.95 | 4.07 | 8.32 | 17 | 9.33 | 12.3 | 6.61 | 8.71 | 7.24 | 19.5 | 3.62 | 7.88 | 40.7 | 18.62 | growth inhibition (GI%) and cytotoxicity (negative values) ([1]; SF-295, single-dose assay): 90.84%; GI50 (Melanoma panel; [19]): 1.65 to 2.78 µM; GI50 [11]: 14.9 µM; CC50 [11]: 81.3 µM; TGI (molar concentration giving total growth inhibition) [11]: 34.67 µM; GI50 [12]: 2.51 µM; TGI (molar concentration giving total growth inhibition) [12]: 8.51 µM; GI50 [13]: 9.02 µM; TGI (molar concentration giving total growth inhibition) [13]: 25.12 µM |
| O=C(NCCN1CCN(c2ccc(Cl)cc2)CC1)c1c(Cl)[nH]c2c1CCCc1ccccc1-2 [Compound 13] |  |  |  |  |  |  |  |  |  |  |  |  |  |  |  |  |  |  |  |  | IAV/MDCK CC50 (MDCK cells): 225.00 µM |
| COc1ccccc1N1CCN(CCNC(=O)c2c(Cl)[nH]c3c2CCCc2ccccc2-3)CC1 [Compound 15] |  |  |  |  |  |  |  |  |  |  |  |  |  |  |  |  |  |  |  |  | growth inhibition (GI%) [14]: 66.06%; growth inhibition (GI%) [15]: 75.11% |
| O=C(NCCCN1CCN(Cc2ccccc2)CC1)c1c(Cl)[nH]c2c1CCCc1ccccc1-2 [Compound 20, N-(3-(4-Benzylpiperazin-1-yl)propyl)-2-chloro-1,4,5,6-tetrahydrobenzo[6,7]cyclohepta[1,2-b]pyrrole-3-carboxamide] | 5.06 | 1.96 | 1.77 | 5.5 | 4.03 | 4.17 | 3.39 | 3.39 | 6.92 | 12 | 10.5 | 12 | 9.55 | 9.12 | 6.76 | 15.85 | 4.33 | 4.9 | 49 | 17.78 | CC50 [9]: 40.7 µM; GI50 [11]: 13.7 µM; CC50 [11]: 53.7 µM; TGI (molar concentration giving total growth inhibition) [11]: 26.91 µM; GI50 [12]: 2.11 µM; CC50 [12]: 13.2 µM; TGI (molar concentration giving total growth inhibition) [12]: 4.9 µM; GI50 [13]: 6.93 µM; CC50 [13]: 45.7 µM; TGI (molar concentration giving total growth inhibition) [13]: 19.95 µM |
